Consider four compounds from PMC7508583, “Discovery and Preclinical Development of Antigiardiasis Fumagillol Derivatives” (Antimicrobial Agents and Chemotherapy, 2020).

Molecules are shown by their SMILES. Read-outs that look alike come from different tables or passages of the source. Where only a bound is given, the exact number is not on record here.

The target in one series is T1, human MetAP2 (Homo sapiens, UniProt P50579).
T1 construct: purchased Bio-Techne/R&D Systems
The series is described as follows: MetAP2 fluorescence assay. In kind it is biochemical. Conditions: for IC50 of compound/IC50 of fumagillin: human MetAP2. Here is the method: Based on the available crystal structures of MetAP2 complexes, the fumagillol core binds in a crowded environment, forming exquisite electrostatic interactions. Therefore, there is little room for the core fumagillol scaffold to adopt a different mode of binding. In contrast, the R group at C-6 can vary substantially because it is mostly solvent exposed. The L groups bind in a narrow site at the active-site entrance.
Recombinant human MetAP2 (Bio-Techne/R&D Systems) was diluted to 10 μg/ml in the assay buffer (50 mM HEPES, 0.1 mM CoCl2, 100 mM NaCl, pH 7.5). The substrate H-Met-Gly-Pro-7-amido-4-methylcoumarin (Bio-Techne/R&D Systems) was diluted to 500 μM with 2 μg/ml of the coupling enzyme, recombinant human dipeptidyl peptidase 4 (Bio-Techne/R&D Systems), in assay buffer. Fifty microliters of 10-μg/ml recombinant human MetAP2 was loaded into a flat-bottom black 96-well plate (Greiner Bio), and the reaction was initiated by adding 50 μl of the substrate/dipeptidyl peptidase 4 mixture. The reaction mixture was incubated at room temperature for 10 min, and the fluorescence was measured for 5 min at excitation and emission wavelengths of 380 nm and 460 nm, respectively, in the kinetic mode. For IC50 determination, 0.5 μl inhibitor solution was added to the reaction mixture. […] The reaction rates were fitted to a 4-parameter logistic nonlinear regression model using the KaleidaGraph tool, yielding the IC50 values and standard error.

The nature of the next series: in vitro. Conditions: human; for efflux ratio at 120 min, 10 µM: Caco-2, pH 7.4; for Papp at 120 min, 10 µM: Caco-2, pH 7.4, Mean ± SE Papp. The source says: Next, we tested the permeation of the compounds across polarized Caco-2 cell monolayers, a method that is widely used as an in vitro model of the human small intestinal mucosa to predict the absorption of orally administered drugs ([63], [64]). With noninvasive intestinal infections, there is no need to establish a high plasma concentration. Since a high rate of uptake through the host gut lining could increase compound toxicity, we sought to reduce gut absorption. […] Both apical-to-basal and basal-to-apical permeation values were measured to obtain information about efflux. […] The efflux machinery is currently unknown.
Passage 36 Caco-2 cells were used. The cells were cultured in Dulbecco’s modified Eagle’s medium (DMEM; 5 ml of 100 mM sodium pyruvate, 5 ml of 100× nonessential amino acids, 5 ml of penicillin-streptomycin, and 100 ml of heat-inactivated fetal bovine serum added to 385 ml of DMEM aseptically and mixed thoroughly), pH 7.4, at 37°C in 5% CO2. DMEM (250 μl) was added to the basal compartment of 96-well multiscreen Caco-2 cell plate consisting of high-pore-density polycarbonate (Millipore) with a 0.4-μm pore size and a 0.11-cm^2 active membrane area. The cells were seeded at a density of 12,000 cells/well (0.16 × 10^6 cells/ml) in the apical wells, with one well containing only medium as blank. The Caco-2 cell plate was placed in a CO2 incubator at 37°C for cell proliferation. On the day of assay, the medium was removed, washed twice with Hanks balanced salt solution (HBSS) buffer supplemented with 2% bovine serum albumin (BSA), pH 7.4, and incubated with the HBSS buffer for 30 min at 37°C. Wells with transepithelial electrical resistance values of greater than 230 Ω · cm^2 were selected for the experiments. […] The assay was performed in duplicate.
Seventy-five microliters of the test compounds was added to the apical wells, and 250 μl of HBSS buffer with 2% BSA was added to the basal wells. The plate was incubated in a CO2 incubator with shaking on a plate shaker at 150 rpm for 120 min, after which 25 μl of the basal samples was collected and processed.
Two hundred fifty microliters of test compounds was added to the basal wells, and 75 μl of HBSS buffer with 2% BSA was added to the apical wells. The plate was incubated in a CO2 incubator with shaking on a plate shaker at 150 rpm for 120 min, after which 25 μl of the apical samples was collected and processed.
For sample processing, a single-point calibration curve in HBSS buffer with 2% BSA was used. Donor samples were diluted 1:1 with HBSS containing 2% BSA, and receiver samples were diluted with 1:1 HBSS buffer and precipitated with 200 μl of acetonitrile containing internal standard. The samples were vortexed for 5 min at 1,000 rpm and centrifuged at 4,000 rpm for 10 min. One hundred microliters of the supernatant was diluted with 200 μl of water and analyzed by LC-MS/MS (with a Shimadzu ultrafast liquid chromatograph and an API 4000 LC-MS/MS system).
The apparent permeation coefficients (Papp) were calculated as Papp = (dQ/dT) × (1/C0) × (1/A), where dQ is the amount permeated to the receiver compartment of the 96-well plate, dT is the time of compound incubation, C0 is the initial compound concentration in the donor compartment of the well, and A is the surface area of the monolayer.
On the technique in general: Caco-2 monolayers are a common model of the intestinal barrier.

In a further series the test system is CHO-K1 (CHO) cells. Conditions: cited from earlier work.
[1] abbreviates: recombinant human MetAP2, fluorescence assay, read-out: Mean ± SE IC50, inhibition of human MetAP2.

T1 sequence (P50579 whole entry): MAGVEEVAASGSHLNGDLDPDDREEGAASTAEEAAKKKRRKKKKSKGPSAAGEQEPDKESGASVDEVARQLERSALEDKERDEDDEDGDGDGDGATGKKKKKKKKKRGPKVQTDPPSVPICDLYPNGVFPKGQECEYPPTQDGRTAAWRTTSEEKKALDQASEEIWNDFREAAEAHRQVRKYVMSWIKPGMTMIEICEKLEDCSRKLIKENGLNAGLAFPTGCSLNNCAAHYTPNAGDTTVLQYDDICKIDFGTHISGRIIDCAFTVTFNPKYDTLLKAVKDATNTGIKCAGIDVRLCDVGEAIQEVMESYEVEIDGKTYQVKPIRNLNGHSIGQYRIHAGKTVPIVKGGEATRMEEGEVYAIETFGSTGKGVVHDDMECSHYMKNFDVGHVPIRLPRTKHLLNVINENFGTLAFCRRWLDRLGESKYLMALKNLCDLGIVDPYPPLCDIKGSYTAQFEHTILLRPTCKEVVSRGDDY

By IC50 is commonly meant the point on the concentration scale where inhibition reaches its midpoint. The efflux ratio is a quotient of directional permeabilities that is used to spot active efflux. In general, Papp refers to a coefficient for how fast a substance crosses the barrier. Lower therefore signals poor permeation. Consider `COC1C(OC(=O)NC(=O)CN2CCOCC2)CCC2(CO2)C1C1(C)OC1CC=C(C)C` (stereo not drawn) [Compound 3], for which the “IC50 of compound/IC50 of fumagillin” value against human MetAP2 amounted to 1.68. For the same compound, the IC50 on human MetAP2 (setting [1]) is 0.67 ± 0.02 nM. Besides, in “in vitro”, the efflux ratio at 120 min, 10 µM stood at 1.95. In addition, the Papp at 120 min, 10 µM in “in vitro” (apical to basal) was 15.8 ± 0.94 ×10⁻⁶ cm/s; in the series “in vitro” (basal to apical) it was 30.4 ± 4.35 ×10⁻⁶ cm/s.
As for `Cc1ncc([N+](=O)[O-])n1CCO` [Metronidazole, reference compound], the IC50 in the series on CHO-K1 (CHO) cells (read-out: IC50 CHO, cytotoxicity) is 17300 nM.
Consider `CO[C@@H]1[C@H](OC(=O)/C=C/C=C/C=C/C=C/C(=O)O)CC[C@]2(CO2)[C@H]1[C@@]1(C)O[C@@H]1CC=C(C)C` [Fumagillin, reference compound], for which, at human MetAP2, the “IC50 of compound/IC50 of fumagillin” value is given as 1. Moreover, the IC50 is 0.4 ± 0.03 nM at human MetAP2 (setting [1]) and greater than 100000 nM in the series with CHO-K1 (CHO) cells (read-out: IC50, cytotoxicity toward mammalian CHO cells). The efflux ratio at 120 min, 10 µM in “in vitro” is 2.13. For the same compound, the Papp at 120 min, 10 µM was determined as 23.7 ± 2.52 ×10⁻⁶ cm/s in the series “in vitro” (apical to basal, Caco-2, 10 μM, 120 min) and 48.8 ± 9.13 ×10⁻⁶ cm/s in the series “in vitro” (basal to apical, Caco-2, 10 μM, 120 min).
Take `CO[C@@H]1[C@H](OC(=O)Nc2ccc(C(=O)O)cc2)CC[C@]2(CO2)[C@H]1[C@@]1(C)O[C@@H]1CC=C(C)C` [Compound 9, 4-(((((3R,4S,5S,6R)-5-methoxy-4-((2R,3R)-2-methyl-3-(3-methylbut-2-en-1-yl)oxiran-2-yl)-1-oxaspiro[2.5]octan-6-yl)oxy)carbonyl)amino)benzoic acid]: 1.1 ± 0.3 nM corresponded to half-maximal inhibition against human MetAP2 (IC50). In addition, the Papp at 120 min, 10 µM in the series “in vitro” (apical to basal) was found to be 12.6 ± 0.63 ×10⁻⁶ cm/s; in the series “in vitro” (basal to apical), 23.6 ± 8.14 ×10⁻⁶ cm/s.
